In PubChem BioAssay AID1918941 (Molecular Pharmacology Branch, DTP, NCI, 2023):

System: SW 1271 complex spheroids, viability
Assay: Anticancer human tumor SW 1271 cell line growth inhibition [LSD1];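 also: spheroids exposed to agents for 7 days before luminescence read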;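 as to viability, T/C: 100% = DMSO vehicle control viability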
Settings: for IC50: curve of first compound; for viability, T/C: stronger effect = lower value
Method in brief: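 Multicellular complex spheroids of tumor cells with human endothelial cells (HUVEC) and mesenchymal stem cells; the LSD1 inhibitor iadademstat was combined with standard-of-care or investigational agents. Top concentration at or near clinical Cmax, half-log dilutions; final DMSO ≤0.25%.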

[1] = second compound 0.1 µM, first compound 0.0316 µM
[2] = second compound 0.1 µM, first compound 0.1 µM
[3] = second compound 0.1 µM, first compound 0.316 µM
[4] = second compound 0.1 µM, first compound 1 µM
[5] = second compound 0.316 µM, first compound 0.0316 µM
[6] = second compound 0.316 µM, first compound 0.1 µM
[7] = second compound 0.316 µM, first compound 0.316 µM
[8] = second compound 0.316 µM, first compound 1 µM
[9] = second compound 1 µM, first compound 0.0316 µM
[10] = second compound 1 µM, first compound 0.1 µM
[11] = second compound 1 µM, first compound 0.316 µM
[12] = second compound 1 µM, first compound 1 µM
[13] = second compound 3.16 µM, first compound 0.0316 µM
[14] = second compound 3.16 µM, first compound 0.1 µM
[15] = second compound 3.16 µM, first compound 0.316 µM
[16] = second compound 3.16 µM, first compound 1 µM
[17] = second compound 10 µM, first compound 0.0316 µM
[18] = second compound 10 µM, first compound 0.1 µM
[19] = second compound 10 µM, first compound 0.316 µM
[20] = second compound 10 µM, first compound 1 µM
[21] = second compound 0.1 µM, first compound 0.00316 µM
[22] = second compound 0.1 µM, first compound 0.01 µM
[23] = second compound 0.316 µM, first compound 0.00316 µM
[24] = second compound 0.316 µM, first compound 0.01 µM
[25] = second compound 1 µM, first compound 0.00316 µM
[26] = second compound 1 µM, first compound 0.01 µM
[27] = second compound 3.16 µM, first compound 0.00316 µM
[28] = second compound 3.16 µM, first compound 0.01 µM
[29] = second compound 10 µM, first compound 0.00316 µM
[30] = second compound 10 µM, first compound 0.01 µM
[31] = second compound 0.1 µM, first compound 0.00949 µM
[32] = second compound 0.1 µM, first compound 0.03 µM
[33] = second compound 0.1 µM, first compound 0.0949 µM
[34] = second compound 0.1 µM, first compound 0.3 µM
[35] = second compound 0.316 µM, first compound 0.00949 µM
[36] = second compound 0.316 µM, first compound 0.03 µM
[37] = second compound 0.316 µM, first compound 0.0949 µM
[38] = second compound 0.316 µM, first compound 0.3 µM
[39] = second compound 1 µM, first compound 0.00949 µM
[40] = second compound 1 µM, first compound 0.03 µM
[41] = second compound 1 µM, first compound 0.0949 µM
[42] = second compound 1 µM, first compound 0.3 µM
[43] = second compound 3.16 µM, first compound 0.00949 µM
[44] = second compound 3.16 µM, first compound 0.03 µM
[45] = second compound 3.16 µM, first compound 0.0949 µM
[46] = second compound 3.16 µM, first compound 0.3 µM
[47] = second compound 10 µM, first compound 0.00949 µM
[48] = second compound 10 µM, first compound 0.03 µM
[49] = second compound 10 µM, first compound 0.0949 µM
[50] = second compound 10 µM, first compound 0.3 µM

CC(C)c1c(-c2ccccc2)nc2c(C#N)c[nH]n2c1=O + NC1CC1c1ccc(-c2cccc(O)c2)cc1
IC50 (second compound 0.1 µM): > 10000 nM
IC50 (second compound 0.316 µM): > 10000 nM
IC50 (second compound 1 µM): > 10000 nM
IC50 (second compound 3.16 µM): 9230 nM
IC50 (second compound 10 µM): > 10000 nM
viability, T/C [1]: 71.8%
viability, T/C [2]: 86%
viability, T/C [3]: 78.7%
viability, T/C [4]: 77.5%
viability, T/C (second compound 0.1 µM, first compound 3.16 µM): 73.2%
viability, T/C (second compound 0.1 µM, first compound 10 µM): 72.9%
viability, T/C [5]: 74.7%
viability, T/C [6]: 70.4%
viability, T/C [7]: 80.9%
viability, T/C [8]: 52.4%
viability, T/C (second compound 0.316 µM, first compound 3.16 µM): 58.5%
viability, T/C (second compound 0.316 µM, first compound 10 µM): 61.6%
viability, T/C [9]: 66.4%
viability, T/C [10]: 96.2%
viability, T/C [11]: 78.4%
viability, T/C [12]: 75%
viability, T/C (second compound 1 µM, first compound 3.16 µM): 58.6%
viability, T/C (second compound 1 µM, first compound 10 µM): 61.3%
viability, T/C [13]: 70.5%
viability, T/C [14]: 68.4%
viability, T/C [15]: 70%
viability, T/C [16]: 58.2%
viability, T/C (second compound 3.16 µM, first compound 3.16 µM): 58.9%
viability, T/C (second compound 3.16 µM, first compound 10 µM): 49.2%
viability, T/C [17]: 56.6%
viability, T/C [18]: 63%
viability, T/C [19]: 82.6%
viability, T/C [20]: 61.6%
viability, T/C (second compound 10 µM, first compound 3.16 µM): 50.8%
viability, T/C (second compound 10 µM, first compound 10 µM): 54.1%

CC[C@@]1(O)C(=O)OCc2c1cc1n(c2=O)Cc2cc3c(CN(C)C)c(O)ccc3nc2-1 + NC1CCC(NC2CC2c2ccccc2)CC1
IC50 (second compound 0.1 µM): > 100 nM
IC50 (second compound 0.316 µM): > 100 nM
IC50 (second compound 1 µM): 66.1 nM
IC50 (second compound 3.16 µM): 71.6 nM
IC50 (second compound 10 µM): > 100 nM
viability, T/C (second compound 0.1 µM, first compound 0.000316 µM): 89.2%
viability, T/C (second compound 0.1 µM, first compound 0.001 µM): 93.8%
viability, T/C [21]: 78.8%
viability, T/C [22]: 63%
viability, T/C [1]: 58%
viability, T/C [2]: 56.4%
viability, T/C (second compound 0.316 µM, first compound 0.000316 µM): 90%
viability, T/C (second compound 0.316 µM, first compound 0.001 µM): 74.2%
viability, T/C [23]: 71.6%
viability, T/C [24]: 72.5%
viability, T/C [5]: 62%
viability, T/C [6]: 58.9%
viability, T/C (second compound 1 µM, first compound 0.000316 µM): 73.4%
viability, T/C (second compound 1 µM, first compound 0.001 µM): 94.5%
viability, T/C [25]: 80.1%
viability, T/C [26]: 66.7%
viability, T/C [9]: 59%
viability, T/C [10]: 45.4%
viability, T/C (second compound 3.16 µM, first compound 0.000316 µM): 95.9%
viability, T/C (second compound 3.16 µM, first compound 0.001 µM): 78.2%
viability, T/C [27]: 72.9%
viability, T/C [28]: 68.3%
viability, T/C [13]: 49.7%
viability, T/C [14]: 49.6%
viability, T/C (second compound 10 µM, first compound 0.000316 µM): 88.3%
viability, T/C (second compound 10 µM, first compound 0.001 µM): 84.2%
viability, T/C [29]: 78.2%
viability, T/C [30]: 60.3%
viability, T/C [17]: 57.5%
viability, T/C [18]: 52.2%

COc1cc(C2c3cc4c(cc3C(OC3OC5COC(C)OC5C(O)C3O)C3COC(=O)C23)OCO4)cc(OC)c1O (stereo not given) + NC1CCC(NC2CC2c2ccccc2)CC1
IC50 (second compound 0.1 µM): 2660 nM
IC50 (second compound 0.316 µM): > 3000 nM
IC50 (second compound 1 µM): > 3000 nM
IC50 (second compound 3.16 µM): > 3000 nM
IC50 (second compound 10 µM): > 3000 nM
viability, T/C [31]: 77%
viability, T/C [32]: 76.8%
viability, T/C [33]: 80.5%
viability, T/C [34]: 68.9%
viability, T/C (second compound 0.1 µM, first compound 0.949 µM): 78.7%
viability, T/C (second compound 0.1 µM, first compound 3 µM): 47%
viability, T/C [35]: 88.7%
viability, T/C [36]: 94.4%
viability, T/C [37]: 75%
viability, T/C [38]: 66.7%
viability, T/C (second compound 0.316 µM, first compound 0.949 µM): 58.4%
viability, T/C (second compound 0.316 µM, first compound 3 µM): 64.1%
viability, T/C [39]: 80.2%
viability, T/C [40]: 80.2%
viability, T/C [41]: 74.2%
viability, T/C [42]: 75%
viability, T/C (second compound 1 µM, first compound 0.949 µM): 66.7%
viability, T/C (second compound 1 µM, first compound 3 µM): 56.9%
viability, T/C [43]: 95.7%
viability, T/C [44]: 70.9%
viability, T/C [45]: 71.8%
viability, T/C [46]: 73.4%
viability, T/C (second compound 3.16 µM, first compound 0.949 µM): 58.9%
viability, T/C (second compound 3.16 µM, first compound 3 µM): 60.8%
viability, T/C [47]: 77%
viability, T/C [48]: 80.9%
viability, T/C [49]: 72.1%
viability, T/C [50]: 72.2%
viability, T/C (second compound 10 µM, first compound 0.949 µM): 58.4%
viability, T/C (second compound 10 µM, first compound 3 µM): 64.3%

Nc1ccn(C2OC(CO)C(O)C2(F)F)c(=O)n1 (stereo not given) + NC1CCC(NC2CC2c2ccccc2)CC1
IC50 (second compound 0.1 µM): > 300 nM
IC50 (second compound 0.316 µM): > 300 nM
IC50 (second compound 1 µM): > 300 nM
IC50 (second compound 3.16 µM): > 300 nM
IC50 (second compound 10 µM): > 300 nM
viability, T/C (second compound 0.1 µM, first compound 0.000949 µM): 83.3%
viability, T/C (second compound 0.1 µM, first compound 0.003 µM): 69.4%
viability, T/C [31]: 62.5%
viability, T/C [32]: 59.5%
viability, T/C [33]: 69.3%
viability, T/C [34]: 71.4%
viability, T/C (second compound 0.316 µM, first compound 0.000949 µM): 73.8%
viability, T/C (second compound 0.316 µM, first compound 0.003 µM): 71.2%
viability, T/C [35]: 76.2%
viability, T/C [36]: 61.3%
viability, T/C [37]: 62.7%
viability, T/C [38]: 59.6%
viability, T/C (second compound 1 µM, first compound 0.000949 µM): 80.7%
viability, T/C (second compound 1 µM, first compound 0.003 µM): 64.6%
viability, T/C [39]: 59.8%
viability, T/C [40]: 66.3%
viability, T/C [41]: 56.1%
viability, T/C [42]: 59.4%
viability, T/C (second compound 3.16 µM, first compound 0.000949 µM): 67.5%
viability, T/C (second compound 3.16 µM, first compound 0.003 µM): 68.4%
viability, T/C [43]: 84.5%
viability, T/C [44]: 59.8%
viability, T/C [45]: 60.5%
viability, T/C [46]: 63%
viability, T/C (second compound 10 µM, first compound 0.000949 µM): 83.7%
viability, T/C (second compound 10 µM, first compound 0.003 µM): 64.3%
viability, T/C [47]: 62.5%
viability, T/C [48]: 68.6%
viability, T/C [49]: 60.7%
viability, T/C [50]: 64.9%

Nc1ncn(C2CC(O)C(CO)O2)c(=O)n1 (stereo not given) + NC1CCC(NC2CC2c2ccccc2)CC1
IC50 (second compound 0.1 µM): > 1000 nM
IC50 (second compound 0.316 µM): > 1000 nM
IC50 (second compound 1 µM): > 1000 nM
IC50 (second compound 3.16 µM): > 1000 nM
IC50 (second compound 10 µM): > 1000 nM
viability, T/C [21]: 83.6%
viability, T/C [22]: 95.2%
viability, T/C [1]: 90%
viability, T/C [2]: 74.5%
viability, T/C [3]: 86.5%
viability, T/C [4]: 81.3%
viability, T/C [23]: 91.3%
viability, T/C [24]: 82.6%
viability, T/C [5]: 92.8%
viability, T/C [6]: 81.3%
viability, T/C [7]: 66.6%
viability, T/C [8]: 76.7%
viability, T/C [25]: 85.8%
viability, T/C [26]: 81.2%
viability, T/C [9]: 75.9%
viability, T/C [10]: 76.7%
viability, T/C [11]: 66.2%
viability, T/C [12]: 72.4%
viability, T/C [27]: 82.3%
viability, T/C [28]: 93.9%
viability, T/C [13]: 74.1%
viability, T/C [14]: 80.6%
viability, T/C [15]: 66.5%
viability, T/C [16]: 77.2%
viability, T/C [29]: 95.7%
viability, T/C [30]: 89.9%
viability, T/C [17]: 84.8%
viability, T/C [18]: 81.8%
viability, T/C [19]: 81.3%
viability, T/C [20]: 91.1%
